Legend:
Type in all cases: cell-based, human
[1] = test system: prostate cancer cells; assay: NK cell function against prostate cancer cells (flow cytometry)
Protocol: FIG. 13A is a graph showing percent of NK cells expressing IFNγ against prostate cancer cell targets. FIG. 13B is a graph illustrating the proportion of NK cells undergoing 3 or more rounds of division.
ADCC was measured in a flow cytometry assay by evaluating degranulation via CD107a (lysosomal-associated membrane protein LAMP-1) and intracellular IFNγ production. Upon thawing, normal donor and patient-derived PBMCs or ascites cells were rested overnight (37° C., 5% CO2) in RPMI 1640 media supplemented with 10% fetal calf serum (RPMI-10). The next morning, they were suspended with tumor-target cells or media after washing twice with RPMI-10. Cells were then incubated with TriKEs or controls for 10 min at 37° C. Fluorescein isothiocyate (FITC)-conjugated anti-human CD107a monoclonal antibody (BD Biosciences, San Jose, CA, USA) was then added. Following an hour 37° C. incubation, GolgiStop (1:1500, BD Biosciences) and GolgiPlug (1:1000, BD Biosciences) were added for 3 h. After washing with phosphate buffered saline, the cells were stained with PE/Cy 7-conjugated anti-CD56 mAb, APC/Cy 7-conjugated anti-CD16 mAb, and PE-CF594-conjugated anti-CD3 mAb (BioLegend, San Diego, CA, USA). Cells were incubated for 15 min at 4° C., washed, and fixed with 2% paraformaldehyde. Cells were then permeabilized using an intracellular perm buffer (BioLegend) to evaluate production of IFNγ through detection via aBV650 conjugated anti-human IFNγ antibody (BioLegend). Samples were washed and evaluated in an LSRII flow cytometer (BD Biosciences, San Jose, CA, USA).
As illustrated in FIGS. 12A-12D, 14A-14L and 15A-15D cam1615B7-H3 TriKE targets prostate cancer. The ability of the cam1615B7-H3 TriKE to improve NK cell activity against prostate cancer was tested. All of the prostate cancer cell lines tested expressed B7-H3. For these tests, normal donor PBMCs and PBMCs obtained from metastatic prostate cancer patients were used.

[2] = test system: NCI-H460 large cell lung cancer cells; assay: NK cell CD107a / IFNγ flow cytometry against NCI-H460; settings: normal donor and lung cancer patient samples, vs controls
Source text: FIGS. 24A-24F illustrate that B7-H3 TriKE enhances NK cell function against lung tumor targets. FIG. 24A is a graph showing pooled analysis of proportion of NK cells from healthy donors expressing CD107a+ against A549(N=6) tumor targets. FIG. 24B is a graph showing pooled analysis of proportion of NK cells from healthy donors expressing IFNγ against A549(N=6) tumor targets. FIG. 24C is a graph showing pooled analysis of proportion of NK cells from healthy donors expressing CD107a+ against NCI-H322 (N=5) tumor targets. FIG. 24D is a graph showing pooled analysis of proportion of NK cells from healthy donors expressing IFNγ against NCI-H322 (N=5) tumor targets. FIG. 24E is a graph showing pooled proportion of NK cells from healthy donors (black bars) or lung cancer patients (white bars) expressing CD107a+ against NCI-H460 (N=7). FIG. 24F is a graph showing pooled proportion of NK cells from healthy donors (black bars) or lung cancer patients (white bars) expressing IFNγ against NCI-H460 (N=7). ** p<0.01, *** p<0.001, and **** p<0.0001.
ADCC was measured in a flow cytometry assay by evaluating degranulation via CD107a (lysosomal-associated membrane protein LAMP-1) and intracellular IFNγ production. […] Samples were washed and evaluated in an LSRII flow cytometer (BD Biosciences, San Jose, CA, USA). […]

[3] = test system: OVCAR8 ovarian cancer cells; assay: NK cell CD107a / IFNγ flow cytometry against OVCAR8; settings: 30 nM, E:T 2:1, 4 hrs; vs no treatment and rhIL-15 alone
Protocol: FIG. 29A is a graph illustrating pooled proportion of NK cells from healthy donors expressing CD107a+ (degranulation) against OVCAR8 and MA148 targets. FIG. 29B is a graph illustrating pooled proportion of NK cells from healthy donors expressing IFNγ cytokine production against OVCAR8 and MA148 targets.
Healthy donor or ovarian cancer PBMC cells were incubated with ovarian tumor targets at 2:1 E:T ratio for 4 hrs with 30 nM TriKE or control condition. FIG. 30A is a graph illustrating pooled proportion of NK cells from healthy donors expressing CD107a+ (degranulation) against OVCAR8 targets (N=8). FIG. 30B is a graph illustrating pooled proportion of NK cells from healthy donors expressing IFNγ cytokine production against OVCAR8 targets (N=8). FIG. 30C is a graph illustrating pooled proportion of NK cells from healthy donors expressing CD107a+ (degranulation) against OVCAR3 targets (N=4). FIG. 30D is a graph illustrating pooled proportion of NK cells from healthy donors expressing IFNγ cytokine production against OVCAR3 targets (N=4). FIG. 30E is a graph illustrating pooled proportion of NK cells from healthy donors expressing CD107a+ (degranulation) against OVCAR5 targets (N=7). FIG. 30F is a graph illustrating pooled proportion of NK cells from healthy donors expressing IFNγ cytokine production against OVCAR5 targets (N=7). […] FIG. 30I is a graph illustrating that tumor killing was evaluated using IncuCyte imaging assay. […] The percentage of Live (Nuclight Red+Caspase 3/7−) tumor cells was quantified over a 48-h period and normalized to tumor alone. Readings were obtained every 15 min (representative of four separate experiments). * p<0.05, ** p<0.01, *** p<0.001, and **** p<0.0001.
ADCC was measured in a flow cytometry assay by evaluating degranulation via CD107a (lysosomal-associated membrane protein LAMP-1) and intracellular IFNγ production. […] Samples were washed and evaluated in an LSRII flow cytometer (BD Biosciences, San Jose, CA, USA).
The ability of cam1615B7-H3 TriKE to mediate NK cell activity against ovarian cancer cells was evaluated. […]

Substance: cam1615B7-H3: second-generation TriKE: humanized camelid anti-CD16 VHH, human wild-type IL-15, anti-B7-H3 mAb 376.96 scFv; SEQ ID NO:1
- NK function (IFNγ) against prostate cancer cell targets vs IL-15 alone ([1]; compared to IL-15 alone): more potent at inducing NK function than IL-15 alone
- B7-H3 specificity of the signal ([1]; with prostate cancer cells): specific to B7-H3
- TriKE-induced signal vs natural cytotoxicity signal ([1]; with prostate cancer cells): stronger than that induced by a strong natural cytotoxicity signal
- NK cell function against NCI-H460 [2]: strongly increased NK cell function
- NK cell degranulation against OVCAR8 [3]: robust
- NK cell intracellular IFNγ production against OVCAR8 [3]: robust
